# Measurements: US4098778A, “β-Endorphin analog” (Hoffmann-La Roche Inc., priority 1977, dated 1978)
# Tests used:
# guinea pig ileum = assay: In vitro opiate activity, guinea pig ileum method of Kosterlitz et al.; type: cell-based; conditions: for In vitro opiate activity: guinea pig ileum, βc-endorphin = 100
# Excerpt: The opiate activity of the peptide of the invention, the parent peptide and other fragment analogs thereof as assayed in vitro by the guinea pig ileum method of Kosterlitz et al., Brit. J. Pharmacol. 39, 398 (1970) is seen in Table 2 below.
# mice = assay: Analgesic activity in mice by the tail-flick method, peptide injected icv; type: in vivo; conditions: for In vivo analgesic activity Relative Potency: molar basis, βc-endorphin = 100; for In vivo analgesic activity AD50: tail-flick, male ICR mice, (95% confidence limit)
# Protocol: The analgesic activity of the synthetic products was assessed in mice by the tail-flick method of D'Amour and Smith J. Pharmacol. Exp. Ther. 72, 74 (1941). Male ICR mice weighing 25-30 g were used. The peptide was injected icv in a volume of 5 μl as described by Haley and McCormick, Br. J. Pharmacol. 12, 12 (1957). To evaluate the tail-flick response, a control latency (T0) was obtained from the mean of two latencies determined prior to the peptide injection; the test latencies (T1) were determined at various times after injection for each animal. "Percent analgesia" was calculated as [(T1 -T0)/(T2 -T0)] × 100; where the cutoff time (T2) was 10 sec. With a twofold increase in latency of reaction time of the reponse as a quantal index of inhibition, the median antinociceptive dose (AD50) and 95% confidence limits were calculated as described by Litchfield and Wilcoxon, J. Pharmacol. Exp. Ther. 96, 99 (1949).
Substance,In vitro opiate activity (guinea pig ileum),In vivo analgesic activity Relative Potency (mice),In vivo analgesic activity AD50 (mice; icv),reversal of activity by naloxone (guinea pig ileum; activity as assayed in vitro),potency relative to βc-endorphin as assayed in vitro (guinea pig ileum; of βc-endorphin),"inhibition of the tail-flick response (mice; doses of 42.5 and 85 μg, icv, mice)",analgesic activity (tail flick method) (mice; mice)
"βc -endorphin (YGGFMTSEKSQTPLVTLFKNAIIKNAHKKGQ; Beta-endorphin; UniProt P01203 1-31, looked up) [parent peptide]",100,100,0.11 (0.07-0.17) μg/mouse,,,,
βh -Endorphin-(1-5)-(16-31),135,0.3,25.1(16.8-37.1) μg/mouse,,,,
"βc -endorphin (6-31) (TSEKSQTPLVTLFKNAIIKNAHKKGQ; Beta-endorphin; UniProt P01203 6-31, looked up, fragment) [βc -Endorphin-(6-31)]",4,< 0.1,> 86 μg/mouse,not reversed by naloxone,4%,slight inhibition of the tail-flick response,intrinsic measurable analgesic activity
βc -Endorphin-(1-5)-(28-31),35,< 0.1,> 86 μg/mouse,,,,
